{"source": "paper PMC9035150", "about": "“Effects of ALT-801, a GLP-1 and glucagon receptor dual agonist, in a translational mouse model of non-alcoholic steatohepatitis” (Scientific Reports, 2022)", "test_system": "DIO-NASH mouse model", "test": "Biopsy-confirmed DIO-NASH (AMLN diet) mouse model, 12 weeks of daily treatment", "format": "in vivo", "experimental": "ALT-801 was evaluated for its metabolic and anti-fibrotic effects during 12 weeks of treatment in the well-documented Amylin Liver NASH (AMLN) DIO-NASH mouse model[22],[44] at Gubra ApS. Mice had ad libitum access to tap water and a diet high in fat (40%, containing 18% trans-fat; 40% carbohydrates, 20% fructose) and 2% cholesterol (AMLN diet; D09100301, Research Diets, New Brunswick, NJ). Semaglutide (GLP-1R agonist) and elafibranor (peroxisome proliferator-activated receptor [PPAR]-α/δ agonist) were included as comparators to assess the effects of added GCGR agonism, and a previously observed modest antifibrotic effect in this assay, respectively. […]\nAfter 29 weeks of diet induction (week-3 relative to start of treatment) a pre-treatment liver biopsy was performed as described in detail previously[44] to select animals for stratification and randomization based on histological assessment. Liver histology was scored using the NAS and fibrosis stage criteria defined by the NASH Clinical Research Network Pathology Committee[47] and only those animals with confirmed steatosis (score ≥ 2) and fibrosis (stage ≥ 1) were selected for stratification and randomization. A stratified randomization into treatment groups was performed for the biopsy-proven DIO-NASH mice according to liver collagen type 1 alpha 1 (Col1A1) quantification at week-3. […]"}
{"smiles": "CSc1ccc(C(=O)/C=C/c2cc(C)c(OC(C)(C)C(=O)O)c(C)c2)cc1", "note": "[elafibranor]", "values": [{"measurement": "Animals with reduction in fibrosis stage of 1 or greater compared to the start of treatment", "setting": "12 weeks", "result": 75, "unit": "%"}, {"measurement": "Body weight vs. vehicle", "setting": "daily for 12 weeks, ALT-801 5 and 10 nmol/kg s.c., semaglutide 10 nmol/kg s.c., elafibranor 78 μmol/kg oral, stabilized after 2–3 weeks, n = 11–12", "result": "significant (p < 0.001) body weight decreases"}]}
